Results: the supplement of paper PMC11061612

Key:
[1] = system: OCUM-1 (Gastric Carcinoma); assay: combination Emax (second highest fraction inhibited in the dose matrix, 72 h); higher = more inhibition; extreme values may be limits of the assay
Summary of the method: (§1)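 Bliss excess equals the observed combination effect minus the expected value EA + EB − EA·EB, where EA and EB are the effects of each agent alone. Combination Emax is the second-highest inhibition within the matrix. Inhibition was scaled from CellTiter-Glo 2.0 luminescence, with 0 set by vehicle wells and 1 by blank wells, after 72 hours of two-drug dosing of cells plated in 1536-well plates.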

[2] = system: JHH-7 (Hepatocellular Carcinoma); assay: as above
Summary of the method: as §1

GI-1 (Glioblastoma) [3] = assay: as above
Summary of the method: as §1

[4] = system: KINGS-1 (Low Grade Glioma); assay: as above
Summary of the method: as §1

[5] = system: SNU-C1 (Colorectal Carcinoma); assay: as above
Summary of the method: as §1

[6] = system: VMRC-LCD (Lung Adenocarcinoma); assay: as above
Summary of the method: as §1

[7] = system: LC4-1 (B-Lymphoblastic Leukemia); assay: as above
Summary of the method: as §1

NB7 (Neuroblastoma) [8] = assay: as above
Summary of the method: as §1

[9] = system: NCI-N87 (Gastric Carcinoma); assay: as above
Summary of the method: as §1

[10] = system: H-EMC-SS (Chondrosarcoma); assay: as above
Summary of the method: as §1

EW-3 (Ewing's Sarcoma) [11] = assay: as above
Summary of the method: as §1

[12] = system: SCC-9 (Oral Cavity Carcinoma); assay: as above
Summary of the method: as §1

[13] = system: OCUB-M (Breast Carcinoma); assay: as above
Summary of the method: as §1

[14] = system: TGBC11TKB (Gastric Carcinoma); assay: as above
Summary of the method: as §1

[15] = system: HSC-2 (Oral Cavity Carcinoma); assay: as above
Summary of the method: as §1

[16] = system: OCUM-1 (Gastric Carcinoma); assay: Bliss excess, mean over the matrix (fraction); higher = more synergy
Summary of the method: as §1

[17] = system: JHH-7 (Hepatocellular Carcinoma); assay: as above
Summary of the method: as §1

GI-1 (Glioblastoma) [18] = assay: as above
Summary of the method: as §1

[19] = system: KINGS-1 (Low Grade Glioma); assay: as above
Summary of the method: as §1

[20] = system: SNU-C1 (Colorectal Carcinoma); assay: as above
Summary of the method: as §1

[21] = system: VMRC-LCD (Lung Adenocarcinoma); assay: as above
Summary of the method: as §1

[22] = system: LC4-1 (B-Lymphoblastic Leukemia); assay: as above
Summary of the method: as §1

NB7 (Neuroblastoma) [23] = assay: as above
Summary of the method: as §1

[24] = system: NCI-N87 (Gastric Carcinoma); assay: as above
Summary of the method: as §1

[25] = system: H-EMC-SS (Chondrosarcoma); assay: as above
Summary of the method: as §1

EW-3 (Ewing's Sarcoma) [26] = assay: as above
Summary of the method: as §1

[27] = system: SCC-9 (Oral Cavity Carcinoma); assay: as above
Summary of the method: as §1

[28] = system: OCUB-M (Breast Carcinoma); assay: as above
Summary of the method: as §1

[29] = system: TGBC11TKB (Gastric Carcinoma); assay: as above
Summary of the method: as §1

[30] = system: HSC-2 (Oral Cavity Carcinoma); assay: as above
Summary of the method: as §1

Row | Structure (SMILES) | combination Emax [1] | combination Emax [2] | combination Emax (GI-1 (Glioblastoma) [3]) | combination Emax [4] | combination Emax [5] | combination Emax [6] | combination Emax [7] | combination Emax (NB7 (Neuroblastoma) [8]) | combination Emax [9] | combination Emax [10] | combination Emax (EW-3 (Ewing's Sarcoma) [11]) | combination Emax [12] | combination Emax [13] | combination Emax [14] | combination Emax [15] | Bliss excess [16] | Bliss excess [17] | Bliss excess (GI-1 (Glioblastoma) [18]) | Bliss excess [19] | Bliss excess [20] | Bliss excess [21] | Bliss excess [22] | Bliss excess (NB7 (Neuroblastoma) [23]) | Bliss excess [24] | Bliss excess [25] | Bliss excess (EW-3 (Ewing's Sarcoma) [26]) | Bliss excess [27] | Bliss excess [28] | Bliss excess [29] | Bliss excess [30]
1 | O=C(c1cc(Cc2n[nH]c(=O)c3ccccc23)ccc1F)N1CCN(C(=O)C2CC2)CC1 [Olaparib] + Cc1c2c(nn1C)CSCc1cc(n(C)n1)CSc1cc(c3ccccc3c1)OCCCc1c(C(=O)O)n(C)c3c-2c(Cl)ccc13 [AZD5991] (first compound max 10 µM, 7x7, partner max 1 µM) | 0.0756 | 0.0758 | 0.51 | 0.0927 | 0.362 | 0.111 | 0.955 | 0.595 | 0.203 | 0.129 | 0.869 | 0.154 | 0.924 | 0.509 | 0.88 | -0.0497 | -0.0457 | 0.0065 | -0.0514 | -0.0155 | -0.0349 | -0.0181 | -0.0154 | -0.0285 | -0.0401 | -0.0215 | -0.0478 | -0.0142 | 0.0015 | -0.0082
2 | Cc1cc2ncnn2cc1Nc1ncc2c(n1)n(C1CCOCC1)c(=O)n2C [AZD7648] + COc1cc([C@@H]2c3cc4c(cc3[C@@H](O[C@@H]3O[C@@H]5CO[C@@H](C)O[C@H]5[C@H](O)[C@H]3O)[C@H]3COC(=O)[C@H]23)OCO4)cc(OC)c1O [Etoposide] (first compound max 10 µM, 7x7, partner max 10 µM) | 0.557 | 0.642 | 0.907 | 0.516 | 0.275 | 0.555 | 1 | 0.909 | 0.697 | 0.524 | 0.855 | 0.481 | 0.885 | 0.0573 | 0.866 | 0.0899 | 0.0547 | 0.0946 | 0.061 | -0.0254 | 0.171 | 0.0856 | 0.0544 | -0.0062 | 0.0506 | 0.0762 | 0.006 | 0.0176 | -0.0517 | 0.128
3 | C=CCn1c(=O)c2cnc(Nc3ccc(N4CCN(C)CC4)cc3)nc2n1-c1cccc(C(C)(C)O)n1 [AZD1775] + CCc1c2c(nc3ccc(O)cc13)-c1cc3c(c(=O)n1C2)COC(=O)[C@]3(O)CC [SN-38] (first compound max 1 µM, partner max 0.3 µM) | 0.65 | 0.43 | 0.988 | 0.495 | 0.646 | 0.591 | 0.934 | 0.97 | 0.8 | 0.561 | 0.872 | 0.557 | 0.931 | 0.914 | 0.952 | -0.0758 | 0.0117 | -0.0412 | -0.0275 | -0.0837 | -0.126 | -0.0519 | 0.0564 | -0.0855 | -0.0137 | -0.135 | -0.0365 | 0.0926 | -0.0338 | -0.0298
4 | C[C@@H]1COCCN1c1cc(C2([S@](C)(=N)=O)CC2)nc(-c2ccnc3[nH]ccc23)n1 [AZD6738] + C1CC(C1)(C(=O)[O-])C(=O)[O-].N.N.[Pt+2] [Carboplatin] (first compound max 10 µM, 7x7, partner max 10 µM) | 0.647 | 0.292 | 0.843 | 0.187 | 0.408 | 0.697 | 0.896 | 0.508 | 0.71 | 0.344 | 0.77 | 0.293 | 0.417 | 0.653 | 0.598 | -0.0496 | -0.0368 | 0.0044 | -0.0713 | -0.0744 | -0.0159 | -0.0504 | -0.0115 | -0.0332 | -0.0251 | 0.0061 | -0.0334 | -0.0165 | -0.0618 | 0.0029
5 | C[C@@H](Oc1cc(-c2cnn(C3CCNCC3)c2)cnc1N)c1c(Cl)ccc(F)c1Cl [Crizotinib] + CC1=C(C(=CC=C1)Cl)NC(=O)C2=CN=C(S2)NC3=CC(=NC(=N3)C)N4CCN(CC4)CCO [Dasatinib] (first compound max 10 µM, 7x7, partner max 2 µM) | 0.354 | 0.422 | 0.969 | 0.788 | 0.683 | 0.657 | 0.866 | 0.689 | 0.607 | 0.402 | 0.571 | 0.966 | 0.391 | 0.176 | 0.923 | -0.0693 | -0.0142 | 0.132 | 0.0575 | -0.056 | -0.0545 | -0.0147 | 0.0924 | -0.0251 | -0.004 | -0.0728 | 0.0429 | -0.0666 | -0.0343 | -0.0097
6 | CC1(C)CCC(CN2CCN(c3ccc(C(=O)NS(=O)(=O)c4ccc(NCC5CCOCC5)c([N+](=O)[O-])c4)c(Oc4cnc5[nH]ccc5c4)c3)CC2)=C(c2ccc(Cl)cc2)C1 [Venetoclax] + CS(=O)(=O)CCNCc1ccc(-c2ccc3ncnc(Nc4ccc(OCc5cccc(F)c5)c(Cl)c4)c3c2)o1 [Lapatinib] (first compound max 1 µM, 7x7, partner max 10 µM) | 0.178 | 0.335 | 0.284 | 0.208 | 0.0031 | 0.256 | 1 | 0.117 | 0.931 | 0.188 | 0.55 | 0.955 | 0.518 | 0.325 | 0.8 | -0.0196 | -0.0408 | 0.0283 | -0.0466 | -0.0495 | -0.0139 | 0.0233 | -0.0348 | -0.0029 | -0.0278 | 0.0862 | -0.036 | -0.0181 | 0.0197 | -0.0145
7 | C=CCn1c(=O)c2cnc(Nc3ccc(N4CCN(C)CC4)cc3)nc2n1-c1cccc(C(C)(C)O)n1 [AZD1775] + Nc1ccn([C@@H]2O[C@H](CO)[C@@H](O)C2(F)F)c(=O)n1 [Gemcitabine] (first compound max 1 µM, partner max 0.3 µM) | 0.656 | 0.399 | 0.916 | 0.341 | 0.485 | 0.6 | 0.945 | 0.721 | 0.735 | 0.649 | 0.904 | 0.375 | 0.955 | 0.918 | 0.947 | 0.0616 | -0.0298 | 0.0649 | -0.0065 | -0.0308 | -0.0497 | 0.0478 | 0.0441 | -0.0481 | 0.014 | 0.0204 | 0.0215 | 0.0679 | 0.0011 | 0.0227
8 | O=C(c1cc(Cc2n[nH]c(=O)c3ccccc23)ccc1F)N1CCN(C(=O)C2CC2)CC1 [Olaparib] + COc1nnc2ccc(N3CCC(c4ccc(OCCN5CCN(C)C(=O)[C@H]5C)cc4)CC3)nn12 [AZD5153] (first compound max 10 µM, 7x7, partner max 1 µM) | 0.488 | 0.237 | 0.738 | 0.0844 | 0.524 | 0.35 | 0.899 | 0.359 | 0.528 | 0.218 | 0.842 | 0.288 | 0.384 | 0.284 | 0.563 | -0.0755 | -0.0336 | 0.0092 | -0.0773 | -0.0531 | -0.0707 | -0.115 | -0.0339 | -0.019 | -0.0456 | -0.0528 | -0.0418 | -0.0609 | -0.0543 | -0.0679
9 | C[C@@H](Nc1cc(F)cc(F)c1)c1cc(C(=O)N(C)C)cc2c(=O)cc(N3CCOCC3)oc12 [AZD8186] + CC(=O)c1c(C)c2cnc(Nc3ccc(N4CCNCC4)cn3)nc2n(C2CCCC2)c1=O [Palbociclib] (first compound max 10 µM, 7x7, partner max 10 µM) | 0.36 | 0.216 | 0.454 | 0.398 | 0.37 | 0.165 | 0.641 | 0.932 | 0.656 | 0.474 | 0.392 | 0.382 | 0.252 | 0.178 | 0.533 | 0.0111 | -0.0086 | 0.0438 | 0.0318 | 0.0065 | 0.006 | 0.202 | 0.211 | 0.0255 | -0.0127 | 0.0752 | 0.0322 | -0.0466 | 0.0002 | 0.0014
10 | C[C@@H](Nc1cc(F)cc(F)c1)c1cc(C(=O)N(C)C)cc2c(=O)cc(N3CCOCC3)oc12 [AZD8186] + C1CN(CCC1(C(=O)N[C@@H](CCO)C2=CC=C(C=C2)Cl)N)C3=NC=NC4=C3C=CN4 [AZD5363] (first compound max 10 µM, 7x7, partner max 10 µM) | 0.513 | 0.25 | 0.751 | 0.422 | 0.586 | 0.0947 | 0.398 | 0.864 | 0.629 | 0.448 | 0.239 | 0.351 | 1 | 0.126 | 0.667 | -0.0101 | -0.0665 | 0.0399 | -0.0307 | -0.0605 | -0.025 | 0.027 | -0.0059 | 0.0125 | -0.0314 | 0.0017 | -0.0225 | 0.019 | -0.0235 | -0.0041
